Measurements taken from ChEMBL document CHEMBL3351249, “Potent cholesteryl ester transfer protein inhibitors of reduced lipophilicity: 1,1'-spiro-substituted hexahydrofuroquinoline derivatives” (J Med Chem, 2014).

Legend:
[1] = target: T1, Cholesteryl ester transfer protein (Homo sapiens, UniProt P11597); assay: Inhibition of human recombinant CETP by fluorescence transfer assay
T1 sequence (P11597 whole entry): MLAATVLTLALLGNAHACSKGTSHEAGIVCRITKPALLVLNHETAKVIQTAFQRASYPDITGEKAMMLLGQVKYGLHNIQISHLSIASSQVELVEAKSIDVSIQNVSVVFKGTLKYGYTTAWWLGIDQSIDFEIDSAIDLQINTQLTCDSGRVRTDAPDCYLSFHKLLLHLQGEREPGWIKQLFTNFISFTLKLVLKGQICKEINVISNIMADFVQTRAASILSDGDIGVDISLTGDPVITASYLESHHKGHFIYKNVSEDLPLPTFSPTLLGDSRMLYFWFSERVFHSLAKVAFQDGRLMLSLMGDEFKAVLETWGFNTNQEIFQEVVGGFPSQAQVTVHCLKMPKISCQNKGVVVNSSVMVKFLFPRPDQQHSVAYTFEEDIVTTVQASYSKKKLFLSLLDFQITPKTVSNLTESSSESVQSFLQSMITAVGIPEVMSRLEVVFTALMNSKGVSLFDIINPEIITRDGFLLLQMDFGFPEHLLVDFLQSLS

[2] = Terminal elimination half life in healthy human administered as single oral dose; assay type: ADME, organism-based; settings: in vivo, read-out: beta t1/2 (converted)

Compound | IC50 [1] [nM] | half-life [2] [h]
CC(C)c1nc2c(c3c1[C@@H](c1ccc(F)cc1)OC31CCCC1)[C@@H](O)CC(C)(C)C2 | 796 | –
CC(C)c1nc2c(c3c1[C@@H](c1ccc(C(C)(C)C)cc1)OC31CCCC1)[C@@H](O)CC(C)(C)C2 | 29 | –
CC(C)c1nc2c(c3c1[C@@H](c1ccc(C(F)(F)F)cn1)OC31CCCC1)[C@@H](O)CC(C)(C)C2 | 96 | –
CCOC(=O)N1c2ccc(C(F)(F)F)cc2[C@@H](N(Cc2cc(C(F)(F)F)cc(C(F)(F)F)c2)C(=O)OC)C[C@H]1CC [TORCETRAPIB] | – | 221
CC(C)c1nc2c(c3c1[C@@H](c1ccc(C(F)(F)F)nc1)OC31CCCC1)[C@@H](O)CC(C)(C)C2 | 135 | –
CC(C)c1nc2c(c3c1[C@@H](c1ccc(C(F)(F)F)cc1)OC3(C)C)[C@@H](O)CC(C)(C)C2 | 548 | –
